Test results taken from ChEMBL document CHEMBL5380859, “Bioactivity-Driven Synthesis of the Marine Natural Product Naamidine J and Its Derivatives as Potential Tumor Immunological Agents by Inhibiting Programmed Death-Ligand 1” (J Med Chem, 2023).
Activity calls are given as the source filed them. The rule behind the calls is not given here.

Columns and labels:
RKO [1] = assay: Cytotoxicity against human RKO cells assessed as reduction in cell viability after 24 hrs by CCK8 assay; format: functional, cell-based
RKO [2] = assay: Downregulation of PD-L1 expression level in human RKO cells at 10 uM incubated for 24 hrs by Western blot analysis; format: functional, cell-based
RKO [3] = assay: Downregulation of PD-L1 expression level in human RKO cells at 1 to 10 uM by Western blot analysis; format: functional, cell-based; conditions: dose 1-10 µM, time 3-24 hrs, TDE = time-dependent effect
RKO [4] = assay: Downregulation of PD-L1 expression level in human RKO cells incubated for 24 hrs by Western blot analysis; format: functional, cell-based; conditions: dose 1-10 µM
RKO [5] = assay: Effect on PD-L1 mRNA level in human RKO cells at 1 to 10 uM by qRT-PCR analysis; format: functional, cell-based; conditions: dose 1-10 µM
RKO [6] = assay: Downregulation of PD-L1 expression level in human RKO cells assessed as turnover rate at 5 uM incubated for 12 hrs in presence of CHX by immunoblotting analysis; format: functional, cell-based
[7] = molecular target: Programmed cell death 1 ligand 1 (Homo sapiens) (UniProt Q9NZQ7); assay: Induction of PD-L1 degradation in human RKO cells at 5 uM in presence of MG132 incubated for 24 hrs by Western blot analysis; format: cell-based
[8] = molecular target: Programmed cell death 1 ligand 1 (Homo sapiens) (UniProt Q9NZQ7); assay: Induction of PD-L1 degradation in human RKO cells at 5 uM in presence of CQ incubated for 24 hrs by Western blot analysis; format: cell-based
[9] = molecular target: Programmed cell death 1 ligand 1 (Homo sapiens) (UniProt Q9NZQ7); assay: Induction of PD-L1 degradation in human RKO cells at 5 uM in presence of 3-MA incubated for 24 hrs by Western blot analysis; format: cell-based
RKO [10] = assay: Antitumor activity in human RKO cells cocultured with […] assessed as induction of T-cell mediated cell killing at 10 uM incubated for 24 hrs by crystal violet staining method; format: functional, cell-based
MC-38 [11] = assay: Antitumor activity against mouse MC38 cells implanted in C57BL/6 mouse assessed as reduction in tumor growth at 50 mg/kg, ip administered once daily for 16 days; format: functional, organism-based; conditions: time 16.0 day
MC-38 [12] = assay: Antitumor activity against mouse MC38 cells implanted in C57BL/6 mouse assessed as reduction in tumor growth at 25 mg/kg, ip administered once daily for 16 days; format: functional, organism-based; conditions: time 16.0 day
MC-38 [13] = assay: Antitumor activity against mouse MC38 cells implanted in C57BL/6 mouse assessed as inhibition of tumor size at 50 mg/kg, ip administered once daily for 16 days; format: functional; conditions: MC-38, 384 h, time 16 day
MC-38 [14] = assay: Antitumor activity against mouse MC38 cells implanted in C57BL/6 mouse assessed as reduction in tumor weight at 50 mg/kg, ip administered once daily for 16 days and measured for every 2 days; format: functional, organism-based; conditions: time 16.0 day
[15] = Toxicity in C57BL/6 mouse implanted with mouse MC38 cells assessed as change in body weight at 50 mg/kg, ip administered once daily for 16 days and measured every 2 days; format: organism-based, MC-38; conditions: in vivo, 384 h, time 16 day
MC-38 [16] = assay: Antitumor activity against mouse MC38 cells implanted in C57BL/6J mouse assessed as increase in number of CD8 positive T cells at 50 mg/kg, ip administered once daily for 16 days by flow cytometry analysis; format: functional, organism-based; conditions: time 16.0 day
MC-38 [17] = assay: Antitumor activity against mouse MC38 cells implanted in C57BL/6J mouse assessed as as increase in ratio of CD8 positive T cells to CD4 positive T cells at 50 mg/kg, ip administered once daily for 16 days by flow cytometry analysis; format: functional, organism-based; conditions: time 16.0 day
MC-38 [18] = assay: Antitumor activity against mouse MC38 cells implanted in C57BL/6 mouse assessed as upregulation of CD3 expression at 50 mg/kg, ip administered once daily and measured after 16 days by immunohistochemistry analysis; format: functional, organism-based; conditions: time 16.0 day
MC-38 [19] = assay: Antitumor activity against mouse MC38 cells implanted in C57BL/6 mouse assessed as downregulation of FOXP3 expression at 50 mg/kg, ip administered once daily and measured after 16 days by immunohistochemistry analysis; format: functional, organism-based; conditions: time 16.0 day
MC-38 [20] = assay: Antitumor activity against mouse MC38 cells implanted in C57BL/6 mouse assessed as downregulation of PD-L1 expression at 50 mg/kg, ip administered once daily and measured after 16 days by immunohistochemistry analysis; format: functional, organism-based; conditions: time 16.0 day
MC-38 [21] = assay: Antitumor activity against mouse MC38 cells implanted in C57BL/6 mouse assessed as upregulation of cleaved caspase 3 at 50 mg/kg, ip administered once daily and measured after 16 days by immunohistochemistry analysis; format: functional, organism-based; conditions: time 16.0 day

Chain of Programmed cell death 1 ligand 1 (Homo sapiens) (Q9NZQ7 whole entry): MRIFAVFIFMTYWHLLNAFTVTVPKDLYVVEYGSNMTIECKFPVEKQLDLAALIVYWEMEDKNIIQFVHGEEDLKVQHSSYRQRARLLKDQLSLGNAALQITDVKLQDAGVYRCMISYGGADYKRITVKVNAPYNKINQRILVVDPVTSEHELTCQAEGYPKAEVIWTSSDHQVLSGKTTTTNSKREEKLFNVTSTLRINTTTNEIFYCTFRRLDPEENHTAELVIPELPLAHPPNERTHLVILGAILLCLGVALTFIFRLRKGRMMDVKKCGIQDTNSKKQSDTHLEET

SMILES | IC50 (RKO [1]) | Activity (RKO [2]) | other results
COc1ccc(Cc2nc(NC(=O)c3cccc(NC(=O)OC(C)(C)C)c3)n(C)c2Cc2ccc(OC)c(OC)c2)cc1 | 31.7 µM | Active | Activity (RKO [3]): Tde; Activity (RKO [4]): Dose-Dependent Effect; Activity (RKO [5]): inactive; Activity (RKO [6]): inactive; Activity [7]: Active; Activity [8]: Active; Activity [9]: inactive; Activity (RKO [10]): Active; Activity (MC-38 [11]): Active; Activity (MC-38 [12]): inactive; inhibition in vivo at 50 mg/kg (MC-38 [13]): 45%; Activity (MC-38 [14]): Active; Activity [15]: Non-Toxic; Activity (MC-38 [16]): Active; Activity (MC-38 [17]): Active; Activity (MC-38 [18]): Active; Activity (MC-38 [19]): Active; Activity (MC-38 [20]): Active; Activity (MC-38 [21]): Active
COc1ccc(Cc2nc(NC(=O)C3CCOCC3)n(C)c2Cc2ccc(OC)c(OC)c2)cc1 | 33.3 µM | Active | –
COc1ccc(Cc2nc(NC(=O)c3cc(OC)cc(OC)c3)n(C)c2Cc2ccc(OC)c(OC)c2)cc1 | > 40 µM | – | –
COc1ccc(Cc2nc(NC(=O)C3CC4(C3)CC(F)(F)C4)n(C)c2Cc2ccc(OC)c(OC)c2)cc1 | > 40 µM | – | –
COc1ccc(Cc2nc(NC(=O)c3cccc(N)c3)n(C)c2Cc2ccc(OC)c(OC)c2)cc1 | 20.1 µM | – | –
COc1ccc(Cc2nc(NC(=O)C34C[C@H]5C[C@H](C3)C[C@@H](C4)C5)n(C)c2Cc2ccc(OC)c(OC)c2)cc1 | 25.7 µM | Active | –
CCCCC(=O)Nc1nc(Cc2ccc(OC)cc2)c(Cc2ccc(OC)c(OC)c2)n1C | > 40 µM | – | –
CCCCC(=O)Nc1cccc(C(=O)Nc2nc(Cc3ccc(OC)cc3)c(Cc3ccc(OC)c(OC)c3)n2C)c1 | 5.2 µM | Active | –
CNC(=O)Nc1nc(Cc2ccc(OC)cc2)c(Cc2ccc(OC)c(OC)c2)n1C | 24.2 µM | Active | –
COc1ccc(Cc2nc(NC(=O)c3ccc(NC(=O)OC(C)(C)C)cc3)n(C)c2Cc2ccc(OC)c(OC)c2)cc1 | 22.4 µM | – | –
COc1ccc(Cc2nc(NC(=O)c3sc(C)nc3C(F)(F)F)n(C)c2Cc2ccc(OC)c(OC)c2)cc1 | 30.8 µM | Active | –
CNc1cccc(C(=O)Nc2nc(Cc3ccc(OC)cc3)c(Cc3ccc(OC)c(OC)c3)n2C)c1 | > 40 µM | – | –
COc1ccc(Cc2nc(NC(=O)c3cccc(NC(C)=O)c3)n(C)c2Cc2ccc(OC)c(OC)c2)cc1 | > 40 µM | – | –
COc1ccc(Cc2nc(NC(=O)c3ccc(N)cc3)n(C)c2Cc2ccc(OC)c(OC)c2)cc1 | 24.9 µM | – | –
COc1ccc(Cc2nc(NC(=O)C3CCCCC3)n(C)c2Cc2ccc(OC)c(OC)c2)cc1 | > 40 µM | – | –
COc1ccc(Cc2nc(NC(=O)c3cccc(NC(=O)CN(C)C)c3)n(C)c2Cc2ccc(OC)c(OC)c2)cc1 | 5.3 µM | Active | –
COc1ccc(Cc2nc(NC(=O)c3ccccc3)n(C)c2Cc2ccc(OC)c(OC)c2)cc1 | > 40 µM | – | –
COc1ccc(Cc2nc(NC(=O)c3cccc(N(C)C)c3)n(C)c2Cc2ccc(OC)c(OC)c2)cc1 | > 40 µM | – | –
COc1ccc(Cc2nc(NC(=O)c3cc(Br)ccc3O)n(C)c2Cc2ccc(OC)c(OC)c2)cc1 | 20.4 µM | – | –
COC(=O)C12CCC(C(=O)Nc3nc(Cc4ccc(OC)cc4)c(Cc4ccc(OC)c(OC)c4)n3C)(CC1)CC2 | 14.6 µM | – | –
COc1ccc(Cc2nc(NC(=O)c3ccc(F)cc3)n(C)c2Cc2ccc(OC)c(OC)c2)cc1 | > 40 µM | – | –
COc1ccc(Cc2nc(NC(=O)c3ccc(OC(F)(F)F)cc3)n(C)c2Cc2ccc(OC)c(OC)c2)cc1 | 23.9 µM | Active | –
COc1ccc(Cc2nc(NC(=O)c3ccc(C(C)=O)cc3)n(C)c2Cc2ccc(OC)c(OC)c2)cc1 | 26.9 µM | – | –
COc1ccc(Cc2nc(NC(=O)c3ccco3)n(C)c2Cc2ccc(OC)c(OC)c2)cc1 | 29.5 µM | Active | –
COc1ccc(Cc2nc(NC(=O)c3ccccc3O)n(C)c2Cc2ccc(OC)c(OC)c2)cc1 | > 40 µM | Active | –
